Experimental data reported in ChEMBL document CHEMBL3046595, “Novel furoxan NO-donor pemetrexed derivatives: design, synthesis, and preliminary biological evaluation” (2009).

What was measured:
Assay type in all cases: functional
A549 [1] = experiment: Cytotoxicity against Homo sapiens (human) A549 cells at 1 x 10^-6 mol/L after 48 hr by MTT assay; conditions: A549, 48 h
HL-60 [2] = experiment: Cytotoxicity against Homo sapiens (human) HL60 cells at 10 x 10^-6 mol/L after 48 hr by MTT assay; conditions: HL-60, 48 h
HL-60 [3] = experiment: Cytotoxicity against Homo sapiens (human) HL60 cells at 0.1 x 10^-6 mol/L after 48 hr by MTT assay; conditions: HL-60, 48 h
BGC-823 [4] = experiment: Cytotoxicity against Homo sapiens (human) BGC823 cells at 10 x 10^-6 mol/L after 48 hr by MTT assay; conditions: BGC-823, 48 h
HL-60 [5] = experiment: Cytotoxicity against Homo sapiens (human) HL60 cells at 1 x 10^-6 mol/L after 48 hr by MTT assay; conditions: HL-60, 48 h
A549 [6] = experiment: Cytotoxicity against Homo sapiens (human) A549 cells at 10 x 10^-6 mol/L after 48 hr by MTT assay; conditions: A549, 48 h
SMMC-7721 [7] = experiment: Cytotoxicity against Homo sapiens (human) SMMC7721 cells at 10 x 10^-6 mol/L after 48 hr by MTT assay; conditions: SMMC-7721, 48 h
BGC-823 [8] = experiment: Cytotoxicity against Homo sapiens (human) BGC823 cells at 0.1 x 10^-6 mol/L after 48 hr by MTT assay; conditions: BGC-823, 48 h
BGC-823 [9] = experiment: Cytotoxicity against Homo sapiens (human) BGC823 cells at 1 x 10^-6 mol/L after 48 hr by MTT assay; conditions: BGC-823, 48 h
A549 [10] = experiment: Cytotoxicity against Homo sapiens (human) A549 cells at 0.1 x 10^-6 mol/L after 48 hr by MTT assay; conditions: A549, 48 h
SMMC-7721 [11] = experiment: Cytotoxicity against Homo sapiens (human) SMMC7721 cells at 0.1 x 10^-6 mol/L after 48 hr by MTT assay; conditions: SMMC-7721, 48 h
SMMC-7721 [12] = experiment: Cytotoxicity against Homo sapiens (human) SMMC7721 cells at 1 x 10^-6 mol/L after 48 hr by MTT assay; conditions: SMMC-7721, 48 h

| SMILES | inhibition at 1 µM (A549 [1]) [%] | inhibition at 10 µM (HL-60 [2]) [%] | inhibition at 0.1 µM (HL-60 [3]) [%] | inhibition at 10 µM (BGC-823 [4]) [%] | inhibition at 1 µM (HL-60 [5]) [%] | inhibition at 10 µM (A549 [6]) [%] | inhibition at 10 µM (SMMC-7721 [7]) [%] | inhibition at 0.1 µM (BGC-823 [8]) [%] | inhibition at 1 µM (BGC-823 [9]) [%] | inhibition at 0.1 µM (A549 [10]) [%] | inhibition at 0.1 µM (SMMC-7721 [11]) [%] | inhibition at 1 µM (SMMC-7721 [12]) [%] |
| --- | --- | --- | --- | --- | --- | --- | --- | --- | --- | --- | --- | --- |
| CCOC(=O)[C@H](CCC(=O)OCCCCOc1no[n+]([O-])c1S(=O)(=O)c1ccccc1)NC(=O)c1ccc(CCc2c[nH]c3[nH]c(N)nc(=O)c23)cc1 | < 50 | < 50 | 50 | < 50 | 50 | < 50 | < 50 | < 50 | > 80 | < 50 | < 50 | > 80 |
| CCOC(=O)[C@H](CCC(=O)OCCOCCOc1no[n+]([O-])c1S(=O)(=O)c1ccccc1)NC(=O)c1ccc(CCc2c[nH]c3[nH]c(N)nc(=O)c23)cc1 | < 50 | – | < 50 | – | > 80 | – | – | < 50 | < 50 | < 50 | < 50 | < 50 |
| CCOC(=O)[C@H](CCC(=O)OCCOc1no[n+]([O-])c1S(=O)(=O)c1ccccc1)NC(=O)c1ccc(CCc2c[nH]c3[nH]c(N)nc(=O)c23)cc1 | < 50 | < 50 | < 50 | < 50 | 50 | < 50 | < 50 | < 50 | < 50 | < 50 | < 50 | < 50 |
| Nc1nc2[nH]cc(CCc3ccc(C(=O)N[C@@H](CCC(=O)O)C(=O)O)cc3)c2c(=O)[nH]1 [PEMETREXED DISODIUM] | < 50 | > 80 | 50 | 50 | > 80 | < 50 | < 50 | < 50 | < 50 | < 50 | < 50 | < 50 |
| CCOC(=O)[C@H](CCC(=O)OCCCCCCOc1no[n+]([O-])c1S(=O)(=O)c1ccccc1)NC(=O)c1ccc(CCc2c[nH]c3[nH]c(N)nc(=O)c23)cc1 | < 50 | < 50 | < 50 | < 50 | > 80 | < 50 | < 50 | < 50 | 50 | < 50 | < 50 | > 80 |
| CCOC(=O)[C@H](CCC(=O)OCCCOc1no[n+]([O-])c1S(=O)(=O)c1ccccc1)NC(=O)c1ccc(CCc2c[nH]c3[nH]c(N)nc(=O)c23)cc1 | < 50 | < 50 | < 50 | < 50 | 50 | < 50 | < 50 | < 50 | < 50 | < 50 | < 50 | < 50 |
| CCOC(=O)[C@H](CCC(=O)OCC#CCOc1no[n+]([O-])c1S(=O)(=O)c1ccccc1)NC(=O)c1ccc(CCc2c[nH]c3[nH]c(N)nc(=O)c23)cc1 | < 50 | 50 | < 50 | – | > 80 | < 50 | < 50 | < 50 | 50 | < 50 | < 50 | 50 |
| CCOC(=O)[C@H](CCC(=O)OCCCCCOc1no[n+]([O-])c1S(=O)(=O)c1ccccc1)NC(=O)c1ccc(CCc2c[nH]c3[nH]c(N)nc(=O)c23)cc1 | 50 | < 50 | > 80 | < 50 | > 80 | < 50 | < 50 | 50 | 50 | < 50 | < 50 | < 50 |
| CCOC(=O)[C@H](CCC(=O)OC(C)COc1no[n+]([O-])c1S(=O)(=O)c1ccccc1)NC(=O)c1ccc(CCc2c[nH]c3[nH]c(N)nc(=O)c23)cc1 (stereo partly drawn) | < 50 | < 50 | > 80 | < 50 | > 80 | < 50 | < 50 | < 50 | > 80 | < 50 | < 50 | < 50 |
